In paper PMC8369502, “High-Throughput Drug Screening System Based on Human Induced Pluripotent Stem Cell-Derived Atrial Myocytes ∼ A Novel Platform to Detect Cardiac Toxicity for Atrial Arrhythmias” (Frontiers in Pharmacology, 2021):
“And” between values parts separate entries of the source, which are not always exact repeats. Equal values may be shown once. “Also recorded” adds a separate entry of the source. Read-outs that look alike come from different tables or passages of the source.

Assays:
Assay type in all cases: cell-based, human
[1] = system: AM (RA-treated hiPS-CMs, atrial-like); experiment: High-throughput membrane potential recording (FluoVolt, FDSS/μCell) in AM; settings: for cessation of beating (samples): 0.1 μM doses; for Beat Rate / PWD30cF / Rising Slope / Falling Slope / PWD80cF: % change from value before compound addition, 10 min after addition (Bay K 8644: 3 min); for arrest of spontaneous beating (samples): at the maximal concentration; for beating rate (in words) / rising slope of membrane potential (in words) / falling slope of membrane potential (in words): concentration range as stated in the source
Procedure: (§1) Using a high-throughput screening system (FDSS/μCell), we assessed the drug toxicity of several experimental drugs on hiPS-derived atrial myocytes as well as control hiPS-derived cardiomyocytes. Membrane potential was used as one of the parameters during the assessment.
(§2) After purification, hiPS-derived cardiomyocytes were plated in 96-well plates for downstream drug response assessment using FluoVolt™ Membrane Potential Kit. […] The comparison of variance in the response of drug administration in CT and AM was represented by the percentage of changes based on their baseline values respectively.
(§3) FluoVolt™ Membrane Potential Kit (ThermoFisher […], F10488, Massachusetts, United States) was used to measure membrane potentials. The basic procedure was performed in accordance with the manufacturer’s instructions. […] MP were recorded at excitation and emission stages at wavelengths of 470 and 540 nm, respectively. […] Stock solutions of the test compounds were prepared in 100% DMSO, and serially diluted 1/40 into compound plates for testing (0.5% DMSO was the maximum concentration in all wells). The compounds were automatically pipetted from the compound plate, and 12 μL was loaded in the wells already containing the cells with 48 μL of media. Recording data were analyzed using Waveform Analysis of Cardiomyocyte Software (Ver.1.2.1J, Hamamatsu Photonics K.K.). Data values for a well were averaged from waveforms that arose during 30 s. The beat rate (BR; beats per minute), waveform amplitude (AMP), and duration at 30, 50, and 80% of decay (PWD30, PWD 50, and PWD 80, respectively) were used as evaluation parameters. PWDs were corrected using the Fridericia formula. PWD30-80 was calculated as the difference between PWD80 and PWD30. Each parameter was calculated as percentage change (%) from the value before test compound addition.

[2] = system: CT (control hiPS-CMs without RA, ventricular-like); experiment: High-throughput membrane potential recording (FluoVolt, FDSS/μCell) in CT; settings: for Falling Slope / PWD30cF / PWD80cF / Rising Slope: % change from value before compound addition, 10 min after addition (Bay K 8644: 3 min); for beating rate (in words) / falling slope of membrane potential (in words) / rising slope of membrane potential (in words): concentration range as stated in the source
Procedure: as §1, §2, §3

[3] = system: hiPS-derived cardiomyocytes; experiment: Cardiac differentiation of hiPSCs with RA, immunostaining (cTnT, MLC-2a, MLC-2v)
Procedure: Undifferentiated hiPSCs were maintained in AK02 medium for 2–3 days until 80% confluency was obtained. To obtain highly purified cardiomyocytes, metabolic selection was performed during post-differentiation, from day 15–26. Cardiomyocyte proportion was quantified by immunostaining with cardiac troponin-T (cTnT).
To further evaluate the gene expression of cardiac subtypes in the control hiPS-CMs (CT) and the RA-treated hiPS-CMs (AM), the cells were co-stained with myosin light chain 2a (MLC-2a: atrial isoform) and myosin light chain 2v (MLC-2v: ventricular isoform) (Supplementary Figure 1). […] In AM (MLC-2a 83.4 ± 0.63%), most cTnT-positive cells were co-positive for MLC-2a, however, very few cTnT-positive cells were found co-positive for MLC-2v (MLC-2v 14.0 ± 2.82%) (Figures 1B, C).
The hiPSCs were enzymatically dispersed and maintained until 80% confluence with StemFit® AK02N containing 10 µM Y-27632 (Wako, 036-24023). The next day, the culture medium was changed to StemFit® AK02N without Y-27632, which was maintained until the next passage. hiPSCs were seeded on a dish coated with Geltrex LDEV-Free Reduced Growth Factor (ThermoFisher […]) at 1% concentration in PBS. When the seeded cells reached 80% confluency (day-1), the culture medium was changed to StemFit® AK02N containing Matrigel® (Growth Factor Reduced, Corning, 354,230) at 1% concentration for 24 h. On day0, the culture medium was changed to Medium A (PSC Cardiomyocyte Differentiation Kit, ThermoFisher […]) containing Matrigel for 48 h. On day2, the culture medium was changed to Medium B (PSC Cardiomyocyte Differentiation Kit, ThermoFisher […]) for 48 h. On day4, the culture medium was changed to cardiomyocyte maintenance medium (PSC Cardiomyocyte Differentiation Kit, ThermoFisher […]) supplemented with or without 0.7 μM RA (Sigma Aldrich, R2625) for 72 h. On day 7, the culture medium was changed to cardiomyocyte maintenance medium, and change the medium every 2 days. The cells typically started spontaneous beating around 10 days of initiation of the differentiation protocol. Purification of cardiomyocytes was performed by using a non-glucose medium supplemented with 4 mM lactic acid for 4days/time, performed 2 times (from day 14 to day 18, and from day 21 to day 25), between the 2 times of purifying application, the medium was changed to cardiomyocyte maintenance medium for 72 h (from day 18 to day 21). After purification, the culture was continued in the cardiomyocyte maintenance medium until the functional analysis.
hiPSC-derived cardiomyocytes were fixed with 4% PFA and permeabilized with 0.1% Triton-X in PBS (-) for 15 min at 4°C. […] Fluorescence images were obtained using Operetta high content imaging system (PerkinElmer, Japan) and analyzed using Harmony analysis software (PerkinElmer, Japan).

Structure (SMILES)	Beat Rate [1]	PWD30cF [1]	beating rate (in words) [1]	membrane potential duration (in words) [2]	Falling Slope [2]	PWD30cF [2]	PWD80cF [2]	beating rate (in words) [2]	falling slope of membrane potential (in words) [2]	Rising Slope [2]	Rising Slope [1]	rising slope of membrane potential (in words) [1]	membrane potential duration (in words) [1]	Falling Slope [1]	PWD80cF [1]	falling slope of membrane potential (in words) [1]	rising slope of membrane potential (in words) [2]	also measured
COc1ccc([C@@H]2Sc3ccccc3N(CCN(C)C)C(=O)[C@@H]2OC(C)=O)cc1 [Diltiazem]	↑	↓	dose-dependent increase	decreased	↑	↓	↓	dose-dependent increases	dose-dependent increases									other parameters of membrane potential (in words) [1]: no obvious changes were observed; cessation of beating (samples) [1]: all the AM samples; incidence of arrhythmia-like waveforms: arrest ([1]; 1 μM): 100%; arrest of spontaneous beating (samples) [1]: all the tested samples
COc1ccc(CCN(C)CCCC(C#N)(c2ccc(OC)c(OC)c2)C(C)C)cc1OC (centres unmarked) [Verapamil]	↑		dose-dependent increase	decreased	↑	↓	↓	dose-dependent increases	dose-dependent increases	↓								other parameters of membrane potential (in words) [1]: no obvious changes were observed; incidence of arrhythmia-like waveforms: arrest ([1]; 0.1 μM): 100%; cessation of beating (samples) [1]: all the AM samples; arrest of spontaneous beating (samples) [1]: all the tested samples
CC1=C(/C=C/C(C)=C/C=C/C(C)=C/C(=O)O)C(C)(C)CCC1 [RA, retinoic acid]																		MLC-2a positive cells ([3]; AM (RA-treated hiPS-CMs)): 83.4 ± 0.63%; MLC-2v positive cells ([3]; AM (RA-treated hiPS-CMs)): 14.0 ± 2.82%; proportion of cTnT-positive cells ([3]; AM (RA-treated hiPS-CMs), 0.7 μM RA day 4-7, n = 3): 96.79 ± 1.81% and 96.8 ± 1.81%; cardiomyocyte differentiation efficiency (in words) ([3]; with vs without RA): did not influence cardiomyocyte differentiation efficiency
C[N+](C)(C)CCOC(N)=O [Carbachol]	↓		decrease								↓	decrease						EAD / irregular beating (in words) [1]: No irregular beating or EAD was elicited; EAD / irregular beating (in words) ([1]; listed as carbachol): caused irregular beats early after application; EAD / irregular beating (in words) [2]: No irregular beating or EAD was elicited; response of membrane potential parameters (in words) [2]: no significant difference was observed
COC(=O)C1=C(C)NC(C)=C([N+](=O)[O-])C1c1ccccc1C(F)(F)F (centres unmarked) [Bay K 8644]		↑		prolonged	↓	↑	↑		dose-dependent decrease		↑		prolonged	↓	↑	dose-dependent decrease		PWD30cF (in words) [1]: prolonged; PWD30cF (in words) ([1]; listed as Bay K8644): prolonged significantly; PWD30cF (in words) [2]: prolonged; PWD30cF (in words) ([2]; listed as Bay K8644): prolonged significantly
CC(C)NCC(O)COc1cccc2ccccc12 (centres unmarked) [Propranolol]	↓		dose-dependent decrease		↓	↓	↑	dose-dependent decrease	dose-dependent decrease	↓	↓	dose-dependent decrease		↓	↑	dose-dependent decrease	dose-dependent decrease	PWD30-80 (in words) [1]: prolonged; PWD80cF (in words) [1]: prolonged; incidence of arrhythmia-like waveforms: irregular beat ([1]; 10 μM): 11%; irregular beating (samples) ([1]; 10 μM, count of samples): 1 out of 9; incidence of arrhythmia-like waveforms: arrest ([1]; 30 μM): 100%; incidence of arrhythmia-like waveforms: arrest ([1]; 100 μM): 100%; PWD30-80 (in words) [2]: prolonged; PWD80cF (in words) [2]: prolonged; concentration at which irregular beating or EAD appeared [2]: above 10 μM; incidence of arrhythmia-like waveforms: EAD ([2]; 10 μM): 25%; incidence of arrhythmia-like waveforms: irregular beat ([2]; 10 μM): 17%; incidence of arrhythmia-like waveforms: EAD ([2]; 30 μM): 42%; incidence of arrhythmia-like waveforms: arrest ([2]; 30 μM): 17%; incidence of arrhythmia-like waveforms: irregular beat ([2]; 30 μM): 8%; incidence of arrhythmia-like waveforms: arrest ([2]; 100 μM): 100%
Nc1ccncc1 [4-Aminopridine, 4-Aminopyridine]		↑				↑									↑			PWD30cF (in words) ([1]; listed as 4-AP): dose-dependent increases; PWD50cF (in words) ([1]; listed as 4-AP): dose-dependent increases; PWD30cF (in words) ([1]; listed as 4AP): prolongation; PWD50cF (in words) ([1]; listed as 4AP): prolongation
Cc1cccc(CCN2CCC(C(=O)c3ccc(NS(C)(=O)=O)cc3)CC2)n1 [E-4031]	↓		dose-dependent decrease	increase	↓	↓	↑	dose-dependent decrease	dose-dependent decrease	↓	↓	dose-dependent decrease	increase	↓	↑	dose-dependent decrease	dose-dependent decrease	PWD30-80 (in words) [1]: prolonged; also recorded: dose-dependent increases; PWD80cF (in words) [1]: prolonged; also recorded: dose-dependent increases; PWD30-80 (in words) [2]: prolonged; also recorded: dose-dependent increases; PWD80cF (in words) [2]: prolonged; also recorded: dose-dependent increases
CCS(=O)(=O)N(C)[C@H]1c2cc(C#N)ccc2OC(C)(C)[C@@H]1O (racemic) [Chromanol 293B]		↑		increase	↓	↑	↑			↓	↓	dose-dependent decrease	increase				dose-dependent decrease	
